Data as given in patent US20050288230A1, “Non-steroidal anti-androgen therapy” (AstraZeneca AB, priority 2002, published 2005).

How the values were obtained:
patients [1] = assay: Randomized open-label study: change in BMD by DEXA, bicalutamide 150 mg daily vs medical castration; format: in vivo, human; conditions: for lumbar spine BMD increase compared to pre-treatment baseline: 150 mg
Experimental: Inclusion criteria for a prospective, multicentre, randomized, open-label, parallel-group study, included: disease stage T1-T4, Nx, and M0 for which immediate hormonal ablation was indicated; and Eastern Cooperative Oncology Group (ECOG) performance status 0 or 1.
Patients were randomized in a 1:1 ratio to receive either bicalutamide 150 mg daily or medical castration with a luteinizing hormone-releasing hormone (LHRH) agonist for 2 years.
Primary efficacy endpoints were percentage change from baseline in BMD measures (lumbar spine and hip) at 96 weeks.
An analysis of covariance (ANCOVA) model was used to analyse the primary efficacy endpoints. Analysis was performed for patients for whom data were available at baseline and at Week 96. Subsidiary analyses were performed, carrying forward the last patient assessment at time points where data were missing. A p value of ≦0.017 was considered statistically significant.
Secondary endpoints included: percentage change in lumbar spine-BMD and hip-BMD from baseline to 24, 48 and 72 weeks.
Secondary efficacy endpoints were also analyzed using an ANCOVA model. BMD were assessed via dual energy X-ray absorptiometry (DEXA).
103 patients were recruited to the study and randomized 1:1 to receive either bicalutamide (R/S racemate) 150 mg (n=51) or medical castration (n=52). • The treatment groups were well balanced at baseline (Table 1). • The median testosterone level at baseline was 414.7 ng/dL in the bicalutamide 150 mg group (n=48) and 477.9 ng/dL in the medical castration group (n=52). • Median baseline values for albumin, total calcium, 25-hydroxy vitamin D, and thyroid-stimulating hormone were similar in the two treatment groups. Bone Mineral Density

humans = conditions: single agent therapy, blood; cited from earlier work
patients [2] = conditions: Casodex 150 monotherapy, preliminary data; cited from earlier work
adult men = conditions: cited from earlier work

Row | Compound | lumbar spine BMD increase compared to pre-treatment baseline (patients [1]; 24 weeks) | lumbar spine BMD increase compared to pre-treatment baseline (patients [1]; 48 weeks) | lumbar spine BMD increase compared to pre-treatment baseline (patients [1]; 72 weeks) | BMD compared to baseline (in words) (patients [1]; in vivo) | basal level of total testosterone (humans) | bone mineral density (in words) (patients [2]) | testosterone and LH (in words) (adult men)
1 | CC(O)(CS(=O)(=O)c1ccc(F)cc1)C(=O)Nc1ccc(C#N)c(C(F)(F)F)c1 (stereo not drawn) [Bicalutamide, 4′-cyano-α′,α′,α′-trifluoro-3-(4-fluorophenylsulphonyl)-2-hydroxy-2-methylpropiono-m-toluidide] | 1.05% | 1.76% | 2.22% | statistically significant increase in BMD compared to baseline | approximate doubling | maintains bone mineral density | 
2 | CC/C(=C(\c1ccccc1)c1ccc(OCCN(C)C)cc1)c1ccccc1 [tamoxifen] |  |  |  |  |  |  | increase testosterone and LH
